Results: PMC3582829 (European journal of medicinal chemistry, 2012)
Read-outs that look alike come from different tables or passages of the source.

Experiments:
TcFPPS = TcFPPS (Trypanosoma cruzi, UniProt Q8WS26); assay type: biochemical
T. cruzi amastigotes [1] = experiment: T. cruzi amastigote assay in Vero cells; assay type: cell-based, Trypanosoma cruzi; details: intracellular T. cruzi
T. cruzi amastigotes [2] = details: positive control; cited from earlier work
T. gondii tachyzoites = details: positive control, cited from earlier work

CCCCCC(C)NCC(P(=O)(O)O)P(=O)(O)O (stereo not drawn) [Compound 18, 1-[(n-Hept-2-ylamino)ethyl] 1,1-bisphosphonic Acid]
activity towards TcFPPS (in words) (TcFPPS): almost devoid of antiparasitic activity
activity against T. cruzi amastigotes (in words) (T. cruzi amastigotes [1]): almost devoid of antiparasitic activity

CCCCCCCNCC(O)(P(=O)(O)O)P(=O)(O)O [Compound 21, 1-[(n-Heptylamino)ethyl]-1-hydroxy-1,1-bisphosphonic Acid]
activity towards TcFPPS (in words) (TcFPPS): almost devoid of antiparasitic activity
activity against T. cruzi amastigotes (in words) (T. cruzi amastigotes [1]): almost devoid of antiparasitic activity

O=P(O)(O)C(O)(Cc1cccnc1)P(=O)(O)O [Risedronate, risedronate]
ED50 T. cruzi amastigotes (T. cruzi amastigotes [2]): 55.0 ± 5.0 [68] μM
ED50 T. gondii (T. gondii tachyzoites; listed as risedronate): 2.4 µM
ED50 T. gondii (T. gondii tachyzoites): 2.4 ± 0.7 [29] μM

CCCCCCCSCC(P(=O)(O)O)P(=O)(O)O [Compound 36, 1-[(n-Heptylthio)ethyl]-1,1-bisphosphonic Acid]
activity towards TcFPPS (in words) (TcFPPS): devoid of anti-T. cruzi activity
activity against T. cruzi amastigotes (in words) (T. cruzi amastigotes [1]): devoid of anti-T. cruzi activity
